# From patent EP0769966B1, “BIOTIN COMPOUNDS FOR TARGETTING TUMORS AND SITES OF INFECTION” (priority 1994, dated 1995)
# Columns and labels:
# [1] = in vivo; assay type: in vivo, male Sprague-Dawley rats; settings: rat, in vivo, iv
# Method: (§1) A clinical isolate of E. Coli was stored at -70°C in a freezing media containing 20% glycerol and 80% dextrose phosphate until use. Aliquots of bacteria were defrosted and colony counts performed on serial dilutions grown overnight on BBL Brucella agar plates. Based on the colony count, freshly thawed bacteria suspensions were washed and diluted with saline to a final concentration of […]. Aliquots (0.1 ml) of bacterial suspensions (8 x 10^9 organisms/ml) were injected into the right thigh muscle of 48 male Sprague-Dawley rats (125-150 g, Charles River Breeding Laboratories, Burlington, MD). Twenty-four rats were used for each labeled biotin compound. Twenty-four hours after injection, swelling in the right thigh readily appeared, and 24 rats each received 1.67 mg of avidin in saline via the tail vein. […] Rats were sacrificed at 5 and 60 min. post-injection, six rats per time point. Blood samples were obtained by cardiac puncture. Syringes were weighed before and after injection to determine the volume delivered. The activity per unit volume was obtained from standards. A total of eleven different tissues were excised, weighed, and counted. These tissues included blood; bone; lung; liver; adrenal; spleen; kidneys; heart; muscle (thigh); teste; and infected muscle (thigh). The excised tissues were blotted, weighed, and counted in a scintillation well counter. The raw counts were decay corrected. The results were expressed as percent injected dose per gram, and infection-to-normal muscle ratios (mean ± s.d.). The biodistribution results were evaluated by analysis of variance (one-way ANOVA). The effect of avidin […] on biodistribution was evaluated by student t-test.
# [2] = system: E. coli infected rats; test: in vivo; assay type: in vivo, male Sprague-Dawley rats; settings: for Infected to normal tissue ratio, Norm mus: infection/normal muscle
# Method: as §1
# [3] = target: avidin (Gallus gallus, UniProt P02701); test: Competitive binding of F-18 labeled biotin analogs to avidin vs. unlabeled d-biotin
# Method: The two biotin derivatives were evaluated for binding to avidin in the presence of varying concentrations of unlabeled d-biotin as described in Example 3.
# A preliminary measure of the binding characteristics of the fluoro analogs of biotin were performed. The binding of these novel F-18 labeled biotin analogs to avidin was evaluated by measuring the binding of F-18 labeled biotin analogs to avidin in the presence of varying concentrations of unlabeled d-biotin. Serial dilutions of d-biotin were prepared in phopshate buffered saline pH 7.4 (PBS). A fixed quantity of the no-carrier added F-18 labeled biotin 1 or 2 (10- 100µCi) were mixed with each d-biotin dilution so that the range of concentrations of cold biotin were 3 orders of magnitude greater and less than the concentration of avidin ([…]). A 200 µl aliquot of the F-18 biotin/cold biotin solution was added to 200 µl of avidin in PBS. The solution was vortexed and allowed to incubate for 1 hour after which time a 5 µl aliquot of the solution was analysed by instant thin layer chromatography (Gelman ILTC-SG) using 0.1 M acetate buffer pH 6.0. In this chromatographic system the F-18 biotin analogs bound to avidin origin while the unbound F-18-biotin analogs move to the solvent front. Percent binding of F-18 biotin analog was calculated as [(counts at origin/total counts)* 100]. For each F-18-biotin analog potential impurities remaining at the origin were determined and the results of binding corrected accordingly.
# [4] = Without Avidin, 60 Min., listed as 18F-biotin1
# [5] = Without Avidin, 60 Min., listed as 18F-labeled biotin 1
# Chain of avidin (P02701 25-152): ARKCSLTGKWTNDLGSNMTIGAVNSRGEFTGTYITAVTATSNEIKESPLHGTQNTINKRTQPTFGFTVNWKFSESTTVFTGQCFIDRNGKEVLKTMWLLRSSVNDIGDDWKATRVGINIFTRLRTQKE
compound,measurement,setting,value
O=C(CCCC[C@@H]1SC[C@@H]2NC(=O)N[C@@H]21)NCCC[18F] [Biotin 1],tissue uptake at 5 min,"[1]; Tissue distribution, Adrenal",1 ± 0.2 %ID/g
same,tissue uptake at 1 h,"[1]; Tissue distribution, Adrenal",0.09 ± 0.02 %ID/g
same,tissue uptake at 5 min,"[1]; Tissue distribution, Blood",1.07 ± 0.31 %ID/g
same,tissue uptake at 1 h,"[1]; Tissue distribution, Blood",0.14 ± 0.02 %ID/g
same,tissue uptake at 5 min,"[1]; Tissue distribution, Bone",1.1 ± 0.16 %ID/g
same,tissue uptake at 1 h,"[1]; Tissue distribution, Bone",2.94 ± 0.37 %ID/g
same,tissue uptake at 5 min,"[1]; Tissue distribution, Heart",1 ± 0.34 %ID/g
same,tissue uptake at 1 h,"[1]; Tissue distribution, Heart",0.14 ± 0.02 %ID/g
same,tissue uptake at 5 min,"[1]; Tissue distribution, Inf mus",1.22 ± 0.36 %ID/g
same,tissue uptake at 1 h,"[1]; Tissue distribution, Inf mus",0.43 ± 0.1 %ID/g
same,tissue uptake at 5 min,"[1]; Tissue distribution, Kidney",4.78 ± 0.8 %ID/g
same,tissue uptake at 1 h,"[1]; Tissue distribution, Kidney",0.23 ± 0.05 %ID/g
same,tissue uptake at 5 min,"[1]; Tissue distribution, Liver",1.39 ± 0.16 %ID/g
same,tissue uptake at 1 h,"[1]; Tissue distribution, Liver",0.13 ± 0.03 %ID/g
same,tissue uptake at 5 min,"[1]; Tissue distribution, Lung",1.21 ± 0.13 %ID/g
same,tissue uptake at 1 h,"[1]; Tissue distribution, Lung",0.11 ± 0.02 %ID/g
same,tissue uptake at 5 min,"[1]; Tissue distribution, Norm mus",0.83 ± 0.09 %ID/g
same,tissue uptake at 1 h,"[1]; Tissue distribution, Norm mus",0.078 ± 0.02 %ID/g
same,tissue uptake at 5 min,"[1]; Tissue distribution, Spleen",1.4 ± 0.3 %ID/g
same,tissue uptake at 1 h,"[1]; Tissue distribution, Spleen",0.14 ± 0.03 %ID/g
same,tissue uptake at 5 min,"[1]; Tissue distribution, Teste",0.57 ± 0.02 %ID/g
same,tissue uptake at 1 h,"[1]; Tissue distribution, Teste",0.16 ± 0.03 %ID/g
same,tissue uptake at 1 h,[1]; ^18F bone uptake (defluorination in vivo),2.94 ± 0.37 %ID/g
same,"Infected to normal tissue ratio, Adrenal","[2]; With Avidin, 5 Min.",1.20±0.22
same,"Infected to normal tissue ratio, Blood","[2]; With Avidin, 5 Min.",0.90±0.14
same,"Infected to normal tissue ratio, Heart","[2]; With Avidin, 5 Min.",1.08±0.18
same,"Infected to normal tissue ratio, Kidney","[2]; With Avidin, 5 Min.",0.28±0.06
same,"Infected to normal tissue ratio, Liver","[2]; With Avidin, 5 Min.",0.83±0.16
same,"Infected to normal tissue ratio, Lung","[2]; With Avidin, 5 Min.",1.06±0.30
same,"Infected to normal tissue ratio, Spleen","[2]; With Avidin, 5 Min.",0.64±0.11
same,"Infected to normal tissue ratio, Teste","[2]; With Avidin, 5 Min.",2.00±0.37
same,"Infected to normal tissue ratio, bone","[2]; With Avidin, 5 Min.",0.90±0.18
same,"Infected to normal tissue ratio, Norm mus","[2]; With Avidin, 5 Min.",1.24±0.20
same,"Infected to normal tissue ratio, Adrenal","[2]; With Avidin, 60 Min.",5.74±1.14
same,"Infected to normal tissue ratio, Blood","[2]; With Avidin, 60 Min.",3.75±0.75
same,"Infected to normal tissue ratio, Heart","[2]; With Avidin, 60 Min.",7.59±1.34
same,"Infected to normal tissue ratio, Kidney","[2]; With Avidin, 60 Min.",2.04±0.35
same,"Infected to normal tissue ratio, Liver","[2]; With Avidin, 60 Min.",4.05±0.65
same,"Infected to normal tissue ratio, Lung","[2]; With Avidin, 60 Min.",4.83±0.91
same,"Infected to normal tissue ratio, Spleen","[2]; With Avidin, 60 Min.",3.34±0.72
same,"Infected to normal tissue ratio, Teste","[2]; With Avidin, 60 Min.",3.35±0.56
same,"Infected to normal tissue ratio, bone","[2]; With Avidin, 60 Min.",0.28±0.07
same,"Infected to normal tissue ratio, Norm mus","[2]; With Avidin, 60 Min.",6.39± 0.96
same,"Infected to normal tissue ratio, Norm mus","[2]; With Avidin, 60 Min., listed as 18F-labeled biotin 1",6.39±0.96
same,"Infected to normal tissue ratio, Adrenal","[2]; Without Avidin, 5 Min.",1.06±0.24
same,"Infected to normal tissue ratio, Blood","[2]; Without Avidin, 5 Min.",1.30±0.86
same,"Infected to normal tissue ratio, Heart","[2]; Without Avidin, 5 Min.",1.21±0.26
same,"Infected to normal tissue ratio, Kidney","[2]; Without Avidin, 5 Min.",0.26±0.05
same,"Infected to normal tissue ratio, Liver","[2]; Without Avidin, 5 Min.",0.89±0.25
same,"Infected to normal tissue ratio, Lung","[2]; Without Avidin, 5 Min.",1.00±0.23
same,"Infected to normal tissue ratio, Spleen","[2]; Without Avidin, 5 Min.",0.94±0.49
same,"Infected to normal tissue ratio, Teste","[2]; Without Avidin, 5 Min.",2.14±0.60
same,"Infected to normal tissue ratio, bone","[2]; Without Avidin, 5 Min.",1.06±0.33
same,"Infected to normal tissue ratio, Norm mus","[2]; Without Avidin, 5 Min.",1.54±0.69
same,"Infected to normal tissue ratio, Adrenal","[2]; Without Avidin, 60 Min.",5.20±1.20
same,"Infected to normal tissue ratio, Heart","[2]; Without Avidin, 60 Min.",6.21±0.57
same,"Infected to normal tissue ratio, Lung","[2]; Without Avidin, 60 Min.",4.21±0.69
same,"Infected to normal tissue ratio, Spleen","[2]; Without Avidin, 60 Min.",2.98±0.30
same,"Infected to normal tissue ratio, Teste","[2]; Without Avidin, 60 Min.",2.87±0.50
same,"Infected to normal tissue ratio, bone","[2]; Without Avidin, 60 Min.",0.16±0.04
same,"Infected to normal tissue ratio, Norm mus","[2]; Without Avidin, 60 Min.",6.08 ± 1.12
same,"Infected to normal tissue ratio, Norm mus","[2]; Without Avidin, 60 Min., listed as 18F-Biotin 1",6.1±1.1
same,"Infected to normal tissue ratio, Norm mus",[2]; [4],6.1
same,"Infected to normal tissue ratio, Norm mus",[2]; [5],6.08±1.12
same,"Infected to normal tissue ratio, Norm mus","[2]; Without Avidin, 60 Min., listed as biotin 1",6.08± 1.12
same,"Infected to normal tissue ratio, Blood",[2]; [4],3.1
same,"Infected to normal tissue ratio, Kidney",[2]; [4],2.0
same,"Infected to normal tissue ratio, Liver",[2]; [4],3.5
same,"Infected to normal tissue ratio, Blood",[2]; [5],3.09±0.54
same,"Infected to normal tissue ratio, Kidney",[2]; [5],1.96±0.24
same,"Infected to normal tissue ratio, Liver",[2]; [5],3.48±0.67
same,accumulation in kidney relative to blood,"[2]; rat, in vivo, 5 min",4.5 fold
same,"Tissue distribution, Adrenal","[2]; rat, in vivo, iv, 5 min",0.85±0.13 percent injected dose per gram
same,"Tissue distribution, Blood","[2]; rat, in vivo, iv, 5 min",1.13±0.11 percent injected dose per gram
same,"Tissue distribution, Bone","[2]; rat, in vivo, iv, 5 min",1.19±0.23 percent injected dose per gram
same,"Tissue distribution, Heart","[2]; rat, in vivo, iv, 5 min",0.99±0.12 percent injected dose per gram
same,"Tissue distribution, Inf mus","[2]; rat, in vivo, iv, 5 min",0.99±0.11 percent injected dose per gram
same,"Tissue distribution, Kidney","[2]; rat, in vivo, iv, 5 min",4.01±0.77 percent injected dose per gram
same,"Tissue distribution, Liver","[2]; rat, in vivo, iv, 5 min",1.29±0.17 percent injected dose per gram
same,"Tissue distribution, Norm mus","[2]; rat, in vivo, iv, 5 min",0.82±0.12 percent injected dose per gram
same,"Tissue distribution, Spleen","[2]; rat, in vivo, iv, 5 min",1.52±0.32 percent injected dose per gram
same,"Tissue distribution, Teste","[2]; rat, in vivo, iv, 5 min",0.50±0.11 percent injected dose per gram
same,"Tissue distribution, Blood","[2]; rat, in vivo, iv, 1 h",0.19±0.04 percent injected dose per gram
same,"Tissue distribution, Bone","[2]; rat, in vivo, iv, 1 h",2.29±0.14 percent injected dose per gram
same,"Tissue distribution, Inf mus","[2]; rat, in vivo, iv, 1 h",0.65±0.14 percent injected dose per gram
same,"Tissue distribution, Kidney","[2]; rat, in vivo, iv, 1 h",0.32±0.04 percent injected dose per gram
same,"Tissue distribution, Norm mus","[2]; rat, in vivo, iv, 1 h",0.10±0.02 percent injected dose per gram
same,"Tissue distribution, Spleen","[2]; rat, in vivo, iv, 1 h",0.19±0.0 percent injected dose per gram
same,"Tissue distribution, Teste","[2]; rat, in vivo, iv, 1 h",0.19±0.04 percent injected dose per gram
same,binding to avidin,[3]; in the presence of varying concentrations of unlabeled d-biotin,bind to avidin and could be displaced by cold d-biotin
same,Bmax,"[3]; scatchard transformation of displacement curve, cold d-biotin",5.57 x 10 ^-16 M
